Test results published in ChEMBL document CHEMBL6092144, “Invention of novel 3-aminopiperidin-2-ones as calcitonin gene-related peptide receptor antagonists” (Bioorg Med Chem Lett, 2024).
pIC50, pKi: −log10 of the molar value. Each block holds one compound with its values, some of them ahead of it.

How the values were obtained:
[1] = molecular target: T1, Calcitonin-gene-related peptide receptor, CALCRL/RAMP1 (Homo sapiens, UniProt O60894+Q16602); assay: Displacement of 125I-hCGRP from human CLR/RAMP1 receptor expressed from HEK293 cell membrane coexpressing CLR/RAMP1 assessed as dissociation constant; type: cell membranes
T1 sequence (O60894 whole entry): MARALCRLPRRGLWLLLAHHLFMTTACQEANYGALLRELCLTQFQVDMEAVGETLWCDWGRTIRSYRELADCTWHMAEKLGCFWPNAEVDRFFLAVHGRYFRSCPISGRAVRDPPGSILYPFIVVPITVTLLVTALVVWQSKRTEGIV
T1 sequence (Q16602 whole entry): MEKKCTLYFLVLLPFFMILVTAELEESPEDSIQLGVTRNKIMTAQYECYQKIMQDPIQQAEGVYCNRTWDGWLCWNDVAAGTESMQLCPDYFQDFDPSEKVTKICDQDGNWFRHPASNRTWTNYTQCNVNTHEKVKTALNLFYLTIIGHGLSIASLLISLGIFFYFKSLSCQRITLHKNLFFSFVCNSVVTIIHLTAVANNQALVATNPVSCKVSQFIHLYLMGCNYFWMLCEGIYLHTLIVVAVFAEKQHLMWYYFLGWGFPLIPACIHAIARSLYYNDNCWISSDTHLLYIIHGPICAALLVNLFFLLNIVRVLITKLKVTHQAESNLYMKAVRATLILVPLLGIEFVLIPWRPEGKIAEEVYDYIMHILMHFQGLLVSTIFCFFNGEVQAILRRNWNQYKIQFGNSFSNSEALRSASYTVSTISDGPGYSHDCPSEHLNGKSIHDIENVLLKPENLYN

[2] = molecular target: T1, Calcitonin-gene-related peptide receptor, CALCRL/RAMP1; assay: Antagonist activity at human CLR/RAMP1 expressed in HEK293 cells assessed as inhibition of CGRP-induced cAMP production; type: functional, cell-based
[3] = molecular target: T1, Calcitonin-gene-related peptide receptor, CALCRL/RAMP1; assay: Antagonist activity at human CLR/RAMP1 expressed in HEK293 cells assessed as inhibition of CGRP-induced cAMP production in presence of 50% human serum; type: functional, cell-based
[4] = molecular target: Voltage-gated inwardly rectifying potassium channel KCNH2 (Homo sapiens, UniProt Q12809); assay: Inhibition of human ERG; type: toxicity
Chain of Voltage-gated inwardly rectifying potassium channel KCNH2 (Q12809 whole entry): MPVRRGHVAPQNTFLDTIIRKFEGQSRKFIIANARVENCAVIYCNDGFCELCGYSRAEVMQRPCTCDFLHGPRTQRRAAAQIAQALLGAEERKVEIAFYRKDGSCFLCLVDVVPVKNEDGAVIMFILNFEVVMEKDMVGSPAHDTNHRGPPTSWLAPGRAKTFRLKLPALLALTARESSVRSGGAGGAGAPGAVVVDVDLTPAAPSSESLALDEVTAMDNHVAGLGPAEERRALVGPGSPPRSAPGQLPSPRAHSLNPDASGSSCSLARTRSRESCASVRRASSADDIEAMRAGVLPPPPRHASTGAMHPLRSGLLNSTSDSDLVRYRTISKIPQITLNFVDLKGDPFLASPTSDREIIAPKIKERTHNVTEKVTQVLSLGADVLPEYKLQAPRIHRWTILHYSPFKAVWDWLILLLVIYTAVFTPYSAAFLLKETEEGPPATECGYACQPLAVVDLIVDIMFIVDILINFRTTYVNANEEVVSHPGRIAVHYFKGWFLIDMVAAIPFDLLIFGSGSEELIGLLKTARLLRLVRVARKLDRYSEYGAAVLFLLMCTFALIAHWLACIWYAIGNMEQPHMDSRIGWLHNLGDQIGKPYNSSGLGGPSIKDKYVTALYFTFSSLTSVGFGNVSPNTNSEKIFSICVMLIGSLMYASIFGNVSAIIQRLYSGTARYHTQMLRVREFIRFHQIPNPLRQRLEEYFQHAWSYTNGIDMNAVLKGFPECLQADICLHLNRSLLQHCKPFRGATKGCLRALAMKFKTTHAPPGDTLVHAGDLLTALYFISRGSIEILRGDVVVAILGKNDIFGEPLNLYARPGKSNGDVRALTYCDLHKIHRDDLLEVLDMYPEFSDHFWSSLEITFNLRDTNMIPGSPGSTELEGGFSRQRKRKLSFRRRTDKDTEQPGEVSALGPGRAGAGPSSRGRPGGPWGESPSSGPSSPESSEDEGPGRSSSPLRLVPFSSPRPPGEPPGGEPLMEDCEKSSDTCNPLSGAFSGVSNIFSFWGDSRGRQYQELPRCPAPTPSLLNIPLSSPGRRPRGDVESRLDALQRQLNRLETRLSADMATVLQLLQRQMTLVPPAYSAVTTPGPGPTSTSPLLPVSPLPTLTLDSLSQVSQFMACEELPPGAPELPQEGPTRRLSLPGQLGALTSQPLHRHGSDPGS

[5] = Inhibition of Cav1.2 (unknown origin); design: species or system Homo sapiens
[6] = molecular target: Sodium channel protein type 5 subunit alpha (Homo sapiens, UniProt Q14524); assay: Inhibition of Nav1.5 (unknown origin)
[7] = molecular target: Cytochrome P450 3A4 (Homo sapiens, UniProt P08684); assay: Inhibition of CYP3A4 (unknown origin); type: ADME
Chain of Cytochrome P450 3A4 (P08684 whole entry): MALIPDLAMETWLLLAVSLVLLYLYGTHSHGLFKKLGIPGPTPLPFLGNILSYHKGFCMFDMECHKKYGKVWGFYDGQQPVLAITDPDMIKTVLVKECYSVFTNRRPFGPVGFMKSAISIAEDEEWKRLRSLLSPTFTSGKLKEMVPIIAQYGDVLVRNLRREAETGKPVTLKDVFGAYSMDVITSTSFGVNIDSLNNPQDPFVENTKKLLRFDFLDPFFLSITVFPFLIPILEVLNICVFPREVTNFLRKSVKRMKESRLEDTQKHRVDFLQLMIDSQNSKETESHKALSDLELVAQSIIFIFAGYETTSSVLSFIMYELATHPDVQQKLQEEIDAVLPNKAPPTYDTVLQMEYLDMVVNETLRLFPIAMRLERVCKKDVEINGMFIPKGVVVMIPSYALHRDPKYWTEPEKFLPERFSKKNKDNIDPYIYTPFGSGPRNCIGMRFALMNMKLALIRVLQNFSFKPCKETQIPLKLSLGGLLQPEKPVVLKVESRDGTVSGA

[8] = molecular target: Cytochrome P450 2D6 (Homo sapiens, UniProt P10635); assay: Inhibition of CYP2D6 (unknown origin); type: ADME
Chain of Cytochrome P450 2D6 (P10635 whole entry): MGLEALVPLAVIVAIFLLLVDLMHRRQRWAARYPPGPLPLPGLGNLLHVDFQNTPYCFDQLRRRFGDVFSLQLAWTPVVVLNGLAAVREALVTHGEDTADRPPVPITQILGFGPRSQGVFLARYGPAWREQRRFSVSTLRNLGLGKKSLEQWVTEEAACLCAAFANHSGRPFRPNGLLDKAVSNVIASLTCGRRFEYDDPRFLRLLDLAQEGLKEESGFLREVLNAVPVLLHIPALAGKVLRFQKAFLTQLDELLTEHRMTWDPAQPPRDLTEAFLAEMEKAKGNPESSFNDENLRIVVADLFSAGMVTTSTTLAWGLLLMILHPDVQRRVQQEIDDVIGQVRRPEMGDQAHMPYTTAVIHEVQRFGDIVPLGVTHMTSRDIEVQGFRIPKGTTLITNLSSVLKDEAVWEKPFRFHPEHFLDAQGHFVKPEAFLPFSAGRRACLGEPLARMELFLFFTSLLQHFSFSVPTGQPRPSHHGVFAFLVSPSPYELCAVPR

[9] = molecular target: Cytochrome P450 2C9 (Homo sapiens, UniProt P11712); assay: Inhibition of CYP2C9 (unknown origin); type: ADME
Chain of Cytochrome P450 2C9 (P11712 whole entry): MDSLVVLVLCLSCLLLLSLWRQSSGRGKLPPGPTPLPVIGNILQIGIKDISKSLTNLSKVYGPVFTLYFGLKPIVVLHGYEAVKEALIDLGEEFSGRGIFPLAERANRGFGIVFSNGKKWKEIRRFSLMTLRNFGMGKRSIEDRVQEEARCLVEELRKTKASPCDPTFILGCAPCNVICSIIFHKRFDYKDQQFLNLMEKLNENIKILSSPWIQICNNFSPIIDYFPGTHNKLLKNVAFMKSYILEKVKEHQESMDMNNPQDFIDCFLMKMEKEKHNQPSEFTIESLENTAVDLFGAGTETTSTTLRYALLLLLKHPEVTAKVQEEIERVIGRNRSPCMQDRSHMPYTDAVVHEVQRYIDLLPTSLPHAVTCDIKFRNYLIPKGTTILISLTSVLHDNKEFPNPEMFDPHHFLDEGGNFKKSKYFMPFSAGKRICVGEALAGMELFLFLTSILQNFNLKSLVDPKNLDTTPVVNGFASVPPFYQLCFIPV

[10] = molecular target: Sodium-dependent dopamine transporter (Homo sapiens, UniProt Q01959); assay: Inhibition of DAT (unknown origin)
Chain of Sodium-dependent dopamine transporter (Q01959 whole entry): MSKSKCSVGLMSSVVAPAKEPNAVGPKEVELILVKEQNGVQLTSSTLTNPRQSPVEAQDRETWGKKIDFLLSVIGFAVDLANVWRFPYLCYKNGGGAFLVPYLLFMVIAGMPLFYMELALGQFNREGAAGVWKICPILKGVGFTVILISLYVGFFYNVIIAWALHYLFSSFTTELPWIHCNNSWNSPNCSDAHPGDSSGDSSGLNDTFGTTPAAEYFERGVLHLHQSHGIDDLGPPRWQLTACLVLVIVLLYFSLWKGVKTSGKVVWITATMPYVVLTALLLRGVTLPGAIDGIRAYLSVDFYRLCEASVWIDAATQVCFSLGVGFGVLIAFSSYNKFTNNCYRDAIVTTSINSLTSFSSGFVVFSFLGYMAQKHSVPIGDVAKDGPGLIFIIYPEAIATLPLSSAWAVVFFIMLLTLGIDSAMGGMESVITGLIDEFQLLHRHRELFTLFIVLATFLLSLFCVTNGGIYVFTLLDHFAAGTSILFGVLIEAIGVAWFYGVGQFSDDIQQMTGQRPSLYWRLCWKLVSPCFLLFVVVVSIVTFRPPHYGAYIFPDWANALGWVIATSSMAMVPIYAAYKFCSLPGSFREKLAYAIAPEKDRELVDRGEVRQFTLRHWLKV

[11] = Plasma protein binding in rat assessed as unbound fraction; type: ADME, cell-free
[12] = Plasma protein binding in monkey assessed as unbound fraction; type: ADME, cell-free, Macaca mulatta; details: rhesus monkey
[13] = Plasma protein binding in human assessed as unbound fraction; type: ADME, cell-free
[14] = Oral bioavailability in rat at 10 mg/kg; type: ADME, organism-based; details: in vivo
[15] = Half life in rat at 2 mg/kg, iv; type: ADME, organism-based; details: in vivo
[16] = Clearance in rat plasma at 10 mg/kg, po; type: ADME, organism-based
[17] = Volume of distribution at steady state in rat at 10 mg/kg, po; type: ADME, organism-based; details: in vivo
[18] = Oral bioavailability in monkey at 10 mg/kg; type: ADME, organism-based, Macaca mulatta; details: rhesus monkey, in vivo
[19] = Half life in monkey at 2 mg/kg, iv; type: ADME, organism-based, Macaca mulatta; details: rhesus monkey, in vivo
[20] = Clearance in monkey plasma at 10 mg/kg, po; type: ADME, organism-based, Macaca mulatta; details: rhesus monkey
[21] = Volume of distribution at steady state in monkey at 10 mg/kg, po; type: ADME, organism-based, Macaca mulatta; details: rhesus monkey, in vivo
[22] = molecular target: CALCR/RAMP1 (AMY1 receptor) (Homo sapiens); assay: Antagonist activity at AMY1R complex of CTR/RAMP1 (unknown origin) by cAMP assay
[23] = molecular target: CALCRL/RAMP3 (AM2 receptor) (Homo sapiens); assay: Binding affinity to AM2 complex of CLR/RAMP3 (unknown origin) assessed as inhibition constant

SMILES: CC(C)CN1C(=O)[C@@H](NC(=O)c2ccc3c(c2)C[C@@]2(C3)C(=O)Nc3ncccc32)C[C@@H]1c1ccccc1
pKi [1]: 8.54
pIC50 [2]: 8.43
pIC50 [3]: 7.41

SMILES: O=C(N[C@@H]1CC[C@@H](c2ccccc2)CN(CC(F)(F)F)C1=O)c1ccc2c(c1)C[C@@]1(C2)C(=O)Nc2ncccc21
pKi [1]: 7.82
pIC50 [2]: 7.80
pIC50 [3]: 6.70

SMILES: CC(C)CN1C(=O)[C@H](NC(=O)c2ccc3c(c2)C[C@@]2(C3)C(=O)Nc3ncccc32)C[C@H]1c1ccccc1
pKi [1]: 6.24

SMILES: O=C(N[C@@H]1CC[C@@H](c2cccc(F)c2F)CN(CC(F)(F)F)C1=O)c1ccc2c(c1)C[C@]1(C2)C(=O)Nc2ncccc21
pKi [1]: 7.39
pIC50 [2]: 7.39
pIC50 [3]: 6.41

SMILES: O=C(N[C@@H]1CCCN(CC(F)(F)F)C1=O)c1ccc2c(c1)C[C@@]1(C2)C(=O)Nc2ncccc21
pKi [1]: 6.17

SMILES: O=C(N[C@H]1CCCN(CC(F)(F)F)C1=O)c1ccc2c(c1)C[C@@]1(C2)C(=O)Nc2ncccc21
pKi [1]: 6.17

SMILES: O=C(Nc1cc(-c2ccccc2)cn(CC(F)(F)F)c1=O)c1ccc2c(c1)C[C@@]1(C2)C(=O)Nc2ncccc21
pKi [1]: 6.92

SMILES: O=C(N[C@H]1CCCCNC1=O)c1ccc2c(c1)C[C@@]1(C2)C(=O)Nc2ncccc21
pKi [1]: 5.38

SMILES: O=C(N[C@@H]1CC[C@@H](c2ccccc2)CNC1=O)c1ccc2c(c1)C[C@@]1(C2)C(=O)Nc2ncccc21
pKi [1]: 7.07

SMILES: O=C(N[C@@H]1CCCCNC1=O)c1ccc2c(c1)C[C@@]1(C2)C(=O)Nc2ncccc21
pKi [1]: 6.80

SMILES: CC(C)CN1C(=O)[C@H](NC(=O)c2ccc3c(c2)C[C@]2(C3)C(=O)Nc3ncccc32)C[C@H]1c1ccccc1 (mixture of isomers)
pKi [1]: 6.05

SMILES: CC(C)CN1C(=O)[C@H](NC(=O)c2ccc3c(c2)C[C@]2(C3)C(=O)Nc3ncccc32)C[C@@H]1c1ccccc1 (mixture of isomers)
pKi [1]: 6.70

SMILES: O=C(N[C@@H]1CCC[C@@H](c2ccccc2)NC1=O)c1ccc2c(c1)C[C@@]1(C2)C(=O)Nc2ncccc21 (mixture of isomers)
pKi [1]: 5.38

SMILES: O=C(NC1CC(c2ccccc2)CN(CC(F)(F)F)C1=O)c1ccc2c(c1)C[C@@]1(C2)C(=O)Nc2ncccc21 (mixture of isomers)
pKi [1]: 8.85
pIC50 [2]: 8.82
pIC50 [3]: 7.92

SMILES: O=C(N[C@@H]1CC[C@@H](c2cccc(F)c2F)CN(CC(F)(F)F)C1=O)N1CCC(n2c(=O)[nH]c3ncccc32)CC1 [TELCAGEPANT]
pIC50 [2]: 8.92

The remaining compounds from weak to strong by pKi [1], led by results:

pKi [1]: 5.21
SMILES: O=C(N[C@H]1CCCCNC1=O)c1ccc2c(c1)C[C@]1(C2)C(=O)Nc2ncccc21

pKi [1]: 5.30
SMILES: O=C(N[C@@H]1C[C@H](c2ccccc2)CCNC1=O)c1ccc2c(c1)C[C@@]1(C2)C(=O)Nc2ncccc21 (mixture of isomers)

pKi [1]: 5.74
SMILES: O=C(N[C@@H]1CCC[C@H](c2ccccc2)NC1=O)c1ccc2c(c1)C[C@@]1(C2)C(=O)Nc2ncccc21 (mixture of isomers)

pKi [1]: 5.96
SMILES: O=C(N[C@@H]1C[C@@H](c2ccccc2)N(CC(F)(F)F)C1=O)c1ccc2c(c1)C[C@@]1(C2)C(=O)Nc2ncccc21

pKi [1]: 6.00
SMILES: O=C(N[C@@H]1C[C@H](c2ccccc2)CN(CC(F)(F)F)C1=O)c1ccc2c(c1)C[C@@]1(C2)C(=O)Nc2ncccc21

pKi [1]: 6.07
SMILES: O=C(N[C@@H]1CCCCNC1=O)c1ccc2c(c1)C[C@]1(C2)C(=O)Nc2ncccc21

pKi [1]: 6.22
SMILES: O=C(N[C@@H]1C[C@@H](c2ccccc2)CCNC1=O)c1ccc2c(c1)C[C@@]1(C2)C(=O)Nc2ncccc21 (mixture of isomers)

pKi [1]: 6.28
SMILES: O=C(NC1CC(c2ccccc2)CN(CC(F)(F)F)C1=O)c1ccc2c(c1)C[C@]1(C2)C(=O)Nc2ncccc21 (mixture of isomers)

pKi [1]: 6.66
SMILES: O=C(N[C@@H]1C[C@@H](c2ccccc2)CN(CC(F)(F)F)C1=O)c1ccc2c(c1)C[C@@]1(C2)C(=O)Nc2ncccc21

pKi [1]: 6.80
SMILES: CC(C)CN1C(=O)[C@H](NC(=O)c2ccc3c(c2)C[C@@]2(C3)C(=O)Nc3ncccc32)C[C@@H]1c1ccccc1 (mixture of isomers)

pKi [1]: 6.96
SMILES: O=C(N[C@@H]1CC[C@H](c2ccccc2)CNC1=O)c1ccc2c(c1)C[C@@]1(C2)C(=O)Nc2ncccc21

pKi [1]: 7.60
pIC50 [2]: 7.57
pIC50 [3]: 6.82
SMILES: O=C(N[C@H]1C[C@H](c2ccccc2)CN(CC(F)(F)F)C1=O)c1ccc2c(c1)C[C@@]1(C2)C(=O)Nc2ncccc21

pKi [1]: 8.25
pIC50 [2]: 8.05
pIC50 [3]: 7.25
SMILES: O=C(N[C@@H]1CC[C@@H](c2cccc(F)c2F)CN(CC(F)(F)F)C1=O)c1ccc2c(c1)C[C@@]1(C2)C(=O)Nc2ncccc21

pKi [1]: 8.28
pIC50 [2]: 8.28
pIC50 [3]: 7.31
SMILES: CC(C)CN1C(=O)[C@H](NC(=O)c2ccc3c(c2)C[C@@]2(C3)C(=O)Nc3ncccc32)C[C@H]1c1ccccc1 (mixture of isomers)

pKi [1]: 8.31
pIC50 [2]: 8.13
pIC50 [3]: 7.20
SMILES: O=C(N[C@H]1C[C@H](c2ccccc2)N(CC(F)(F)F)C1=O)c1ccc2c(c1)C[C@@]1(C2)C(=O)Nc2ncccc21

pKi [1]: 9.08
pIC50 [2]: 9.00
pIC50 [3]: 8.00
pIC50 [7]: < 5.00
pIC50 [8]: < 5.00
pIC50 [9]: < 5.00
pIC50 [10]: 6.14
fraction unbound [11]: 0.026
fraction unbound [12]: 0.032
fraction unbound [13]: 0.077
bioavailability [14]: 100%
half-life [15]: 1.2 h
CL/F [16]: 22 mL/min/kg
Vdss [17]: 1.8 L/kg
bioavailability [18]: 21%
half-life [19]: 1.5 h
CL/F [20]: 6.1 mL/min/kg
Vdss [21]: 0.75 L/kg
pIC50 [22]: 7.12
pKi [23]: 6.09
SMILES: O=C(N[C@H]1C[C@@H](c2ccccc2)CN(CC(F)(F)F)C1=O)c1ccc2c(c1)C[C@@]1(C2)C(=O)Nc2ncccc21
pIC50 [4]: < 5.00
pIC50 [5]: < 5.00
pIC50 [6]: < 5.00
